In US20030211475A1, “Methods for identifying pathway-specific reporters and target genes, and uses thereof” (Rosetta Inpharmatics, Inc., priority 1999, published 2003):

Tested on: ergosterol pathway
Assay: DNA microarray transcript profiling of clotrimazole-treated yeast

Clc1ccccc1C(c1ccccc1)(c1ccccc1)n1ccnc1 [Clotrimazole, clotrimazole]
YPL272C expression in response to drug treatment (titration plot, FIG. 13) (clotrimazole titration): induced to a high level | number of genes upregulated by treatment (wild-type strain R174, YPD, 30° C., 12 hours, 0.03, 0.1, 1.0, and 3.0 ug/ml): ~500
